For experiment [1], the system named is righting, pinnal and corneal reflexes. Briefly: Anaesthetic effects tested intravenously. The following applies: loss of all three reflexes. The class given is in vivo, mice. On the procedure: (D) Compounds are tested for anaesthetic effects following intracerebroventricular injection in mice. The animals are observed for loss of righting reflex (failure to roll over within 10 seconds of being turned on their backs), loss of pinnal reflex (failure to flick the ear in response to a light touch at the base of the pinna) and loss of corneal reflex (failure to blink when the cornea is touched lightly). Loss of all three reflexes constitutes anaesthesia. In addition, any other effects are noted. […] Interesting compounds are then tested intravenously in the same manner.
(§1) From the data obtained the respective ED50 figures were calculated (i.e. the dose required to elicit the appropriate effect in 50% of the animals). N.T.: not tested.

In experiment [2] the test system is mouse hot plate. Briefly: Analgesia in mice in the hot plate test. The class given is in vivo. On the procedure:
(A) Analgesia in mice in the hot plate test (modification of the method of Eddy, N. B. et al., J. Pharm. Exp. Therap. (1953) 107, 385, the peptide being administered by intracerebroventricular injection).
as §1
(Hot-plate and tail-flick tests time the reaction to a heat stimulus.)

The test system of experiment [3] is citric acid aerosol-induced coughs. Briefly: Antitussive testing, citric acid aerosol. The class given is in vivo, guinea-pigs. On the procedure: J. Pharmacol, 39, (1970) 225.
(C) For antitussive testing, guinea-pigs are subjected to an aerosol containing 20% citric acid, 30 minutes after administration of compound (orally or subcutaneously). The number of coughs during a five minute exposure are counted and meaned for six animals per treatment. The method is that described by Boura, A. L. A., Green, A. F. and Saunders, I. A. Br. J. Pharmac., May 1970, Vol. 39, No. 1, page 225.
as §1

The subject of experiment [4] is righting, pinnal and corneal reflexes. Briefly: Anaesthetic effects following intracerebroventricular injection in mice (loss of righting, pinnal and corneal reflexes). The class given is in vivo. The settings on record: mouse, loss of all three reflexes.
Experiment [5] relates to castor oil-induced diarrhoea. Nature of the experiment: Antidiarrhoeal activity in the rat (castor oil). The class given is in vivo. On the procedure: (B) Antidiarrhoeal activity in the rat. In this procedure rats were straved for 24 hours, the peptide then administered either subcutaneously or orally followed after 15 minutes by 1 ml castor oil per rat given orally.
as §1

Experiment [6] deals with righting, pinnal and corneal reflexes. Nature of the experiment: Anaesthesia in laboratory animals (abolition of reflexes), standard pharmacological procedures. The class given is in vivo, rats and mice.
Experiment [7] concerns isolated guinea-pig ileum. Briefly: Electrically-induced contractions of the isolated guinea-pig ileum. The settings on record: 0.1 Hz; 0.4 ms; 30-40 V. An excerpt: (Each intestinal segment was impaled by the anode and suspended with a 2-3 g load. Stimulus parameters: frequency: 0.1 Hz; duration: 0.4 ms; voltage (supramaximal) 30-40 V; the contractions were transduced isotonically).

In experiment [8] the test system is isolated mouse vas deferens. Nature of the experiment: Neurally evoked contractions of the isolated mouse vas deferens.

Structures can show the parent of a compound that is named as a salt.

The compound `CCNC(=O)[C@@H](CC(C)C)NC(=O)[C@H](Cc1ccccc1)NC(=O)CNC(=O)[C@@H](C)NC(=O)[C@@H](N)Cc1ccc(O)cc1` [H.Tyr.D-Ala.Gly.Phe.D-Leu.NHEt hydrochloride] came in with an ED50 anaesthesia i.v. in experiment [1] of 20 mg/kg. Also, the “ED50 mouse hot plate, analgesia” value in experiment [2] (i.c.v., dose eliciting the effect in 50% of the animals) is 0.03 μg/mouse. Also, in experiment [3] (guinea-pig, 20% citric acid aerosol 30 minutes after administration, route not printed in table (orally or subcutaneously)), the ED50 antitussive is 2.0 mg/kg. Moreover, in experiment [4], the ED50 anaesthesia i.c.v. came out at 2.8 μg/mouse. The same compound showed an ED50 anti-diarrhoea in experiment [5] (rat, s.c., castor oil 1 ml orally 15 minutes after peptide) of 10 mg/kg.
In the case of `CCNC(=O)[C@@H](CC(C)C)NC(=O)[C@H](Cc1ccccc1)NC(=O)CNC(=O)[C@@H](C)NC(=O)[C@@H](N)Cc1ccc(O)cc1` [peptide of formula (I), h.tyr.D-Ala.Gly.Phe.D-Leu.NHEt], the “Reversal of reflex-abolishing effects by naloxone” value in experiment [6] (effects (i), (ii) and (iii), naloxone administered) is reported as “may be reversed by administration of the known narcotic antagonist naloxone”. Moreover, in experiment [6] (laboratory animals), the “Effect on the corneal reflex” value is given as “Abolition of the corneal reflex”, the “Effect on the pinnal reflex” value is “Abolition of the pinnal reflex” and the “Effect on the righting reflex” value was “Abolition of the righting reflex”. In addition, the “Induction and maintenance of anaesthesia” value in experiment [6] (rats and mice, parenteral, e.g. intravenous or intracerebroventricular injection) was “both to induce and to maintain anaesthesia”. Further, the “Naloxone sensitivity of analgesic activity” value in experiment [2] (mice, hot plate, naloxone) was “abolished by naloxone”. In experiment [2] (mice, intracerebroventricular injection), the “Analgesic activity, hot plate” value is “exhibits analgesic activity”. Further, the “Antitussive activity” value in experiment [3] (guinea-pigs) is listed as “exhibits antitussive activity”. In addition, the “Antidiarrhoeal activity” value in experiment [5] (rats, castor oil-induced diarrhoea) is on record as “effective in reducing castor oil-induced diarrhoea”. Also, in experiment [7], the “Effect on electrically-induced contractions of isolated guinea-pig ileum” value is recorded as “Reduction of electrically-induced contractions”. Further, in experiment [8] (naloxone), the “Naloxone sensitivity of vas deferens inhibition” value is given as “abolished by the known narcotic antagonist naloxone”. Further, in experiment [8] (pulses at 0.1 Hz), the “Effect on neurally evoked contractions of isolated mouse vas deferens” value is “Inhibition of neurally evoked contractions”.
As for `CN1CC[C@]23c4c5ccc(O)c4O[C@H]2[C@@H](O)C=C[C@H]3[C@H]1C5` [morphine, reference compound], the “Effect on the righting reflex, morphine by acute bolus injection” value in experiment [6] (mice, acute bolus injection in up to lethal doses) is on record as “does not abolish the righting reflex”.
